Measured values reported in patent US6821988B2, “3-cyanoquinolines as inhibitors of EGF-R and HER2 kinases” (Wyeth Holdings Corporation, priority 2001, dated 2004).
Converted amounts (≈) assume the structure as drawn. “And” between values parts separate entries of the source, which are not always exact repeats. Identical values can stand only once.

Assays:
[1] = target: T1, EGFR cytoplasmic domain (EGFR-CD, amino acid 645-1186) (Homo sapiens, UniProt P00533); test: Inhibition of EGF-R kinase autophosphorylation, recombinant enzyme, DELFIA/time-resolved fluorometry; type: biochemical
T1 construct: EGFR cytoplasmic domain (EGFR-CD, amino acid 645-1186); made in house; host or cells: Sf-9 insect cells, baculovirus (pFASTBacHTc)
T1 sequence (P00533 669-1210): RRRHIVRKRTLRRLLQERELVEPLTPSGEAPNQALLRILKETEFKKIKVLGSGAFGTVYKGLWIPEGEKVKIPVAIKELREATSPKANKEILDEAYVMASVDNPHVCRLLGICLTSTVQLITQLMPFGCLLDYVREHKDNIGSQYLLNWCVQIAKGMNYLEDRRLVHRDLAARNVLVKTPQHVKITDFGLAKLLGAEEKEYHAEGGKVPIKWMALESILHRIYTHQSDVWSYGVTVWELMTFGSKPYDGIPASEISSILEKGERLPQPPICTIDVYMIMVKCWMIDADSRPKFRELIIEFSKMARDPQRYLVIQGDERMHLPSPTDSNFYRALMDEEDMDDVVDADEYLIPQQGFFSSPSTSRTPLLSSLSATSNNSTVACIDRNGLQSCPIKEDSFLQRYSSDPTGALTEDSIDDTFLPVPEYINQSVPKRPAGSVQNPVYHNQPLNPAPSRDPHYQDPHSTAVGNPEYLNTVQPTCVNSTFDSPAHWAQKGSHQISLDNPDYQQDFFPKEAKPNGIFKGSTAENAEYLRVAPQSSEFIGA
Method: (§1) A 1.7 kb cDNA encoding human HER2 cytoplasmic domain (HER2-CD, amino acid 676-1255) and 1.6 kb cDNA for EGFR cytoplasmic domain (EGFR-CD, amino acid 645-1186) were cloned into baculoviral expression vectors, pBlueBacHis2B (Invitrogen) and pFASTBacHTc (GIBCO), separately. A sequence encoding (His)6 is located at the 5′ end upstream to HER2 and EGFR sequences. Sf-9 cells were infected at moi=10 for 3 days for protein expression. Sf-9 cell pellets were solubilized on ice in buffer containing 50 mM HEPES, pH 7.4, 10 mM NaCl, 1% Triton, 10 μM ammonium molybdate, 100 μM sodium vanadate, 10 μg/ml aprotinin, 10 μg/ml leupeptin, 10 μg/ml pepstatin, and 16 ug/ml benzamidine HCl for 20 min followed by 20 min centrifugation. Crude extract supernatant was passed through equilibrated Ni-NTA superflow packed column (Qiagen, Valencia, Calif.) and wash with 10 mM, and 100 mM imidazole to remove unspecific binding. Histidine-tagged proteins were eluted with 250 mM and 500 mM imidazole and dialyzed against 50 mM NaCl, 20 mM HEPES, 10% glycerol and 1 μg/ml each of aprotinin, leupeptin and pepstatin for 2 h. All the purification procedure was performed at 4° C. or on ice. Purified materials were subjected for electrophoresis followed by Coommassie blue stain to determine the purity of the preparation and Western blot for the identity of protein. Enzymes were aliquoted and stored at −80° C.
(§2) Inhibition of EGFR and HER2 kinase autophosphorylation was measured by a DELFIA/time-resolved fluorometry assay. Compounds were dissolved in 100% DMSO and diluted to the appropriate concentrations with 25 mM HEPES, pH 7.4. In each well, 10 μl of compound was incubated with 10 μl of recombinant EGF-R or HER2 enzyme (1:80 dilution in 100 mM HEPES) for 10 min at room temperature. Then, 10 μl of 5×buffer (containing 20 mM HEPES, 2 mM MnCl2, 100 uM Na3VO4 and 1 mM DTT) and 20 μl of 0.1 mM ATP/50 mM MgCl2 was added for 1 h. Positive and negative controls were included in each plate by incubation of enzyme with or without ATP/MgCl2. At the end of incubation, liquid was aspirated and washed three times with wash buffer. 75 μl (400 ng).of europium-labeled anti-phosphotyrosine antibody was added to each well for another hour of incubation. After wash, enhancement solution was added and the signal was detected by Victor (Wallac Inc) with excitation at the wavelength of 340 nm and emission at the wavelength of 615 nm. All reagents were supplied by Wallac Inc (Wallac/Perkin-Elimer). Percentage of autophosphorylation inhibition by compound was calculated by […]. IC50 values were obtained from curves of percentage inhibition with 8 doses of compound.

[2] = test system: 3T3 (murine fiboblasts); test: Inhibition of cell growth, sulforhodamine B assay, 3T3; type: cell-based; settings: 3T3, 2 days; for IC50: Mus musculus, 48 h, read-out: Inhibition of Cancer Cell Growth in vitro IC50, 3T3
Method: (§3) […], A431 (epidermoid carcinoma), SKBR3 (breast carcinoma), SW620 (colon carcinoma), and MDA-MB435 (breast carcinoma), BT474 (breast carcinoma), and two murine lines, 3T3 (murine fiboblasts) and HER2-3T3 (murine fiboblasts transfected with human HER2) were used for cell proliferation assays. Cells were maintained in RPMI -1640 medium supplemented with 5% fetal bovine serum. Cells were plated in 96-well plates at the densities of 2.5×10^4/ml for 3T3 and 3T3/HER2 and 5.0×10^4/ml for the rest of the cell lines. On the next day, compounds were dosed at 0.5, 5, 50, 500, and 5000 ng/ml and cultured for 2 days. At the end of incubation, cell survival was determined by the sulforhodamine B assay as previously described (Skehan, P; Stornet, R.; Scudiero, D.; Monks, A.; McMahon, J.; Vistica D., Warren, J.; Bokbosch, H.; Kenny, S.; Boyd, M. New Colorimetric Cytotoxic Assay for Anticancer-Drug Screening. J. Natl. Cancer Inst. 1990, 82, 1107-1112). The IC50 values (the concentration needed to inhibit cell growth by 50%) were obtained from the growth curves and are shown below in Table 2 where the results of multiple determinations are included.

[3] = target: T2, human HER2 cytoplasmic domain (HER2-CD, amino acid 676-1255) (Homo sapiens, UniProt P04626); test: Inhibition of HER2 kinase autophosphorylation, recombinant enzyme, DELFIA/time-resolved fluorometry; type: biochemical; settings: for inhibition at 2 µg/mL: read-out: HER2 % Inhibition at 2 μg/mL; for IC50: recombinant HER2 autophosphorylation
T2 construct: human HER2 cytoplasmic domain (HER2-CD, amino acid 676-1255); made in house; host or cells: Sf-9 insect cells, baculovirus (pBlueBacHis2B)
T2 sequence (P04626 676-1255): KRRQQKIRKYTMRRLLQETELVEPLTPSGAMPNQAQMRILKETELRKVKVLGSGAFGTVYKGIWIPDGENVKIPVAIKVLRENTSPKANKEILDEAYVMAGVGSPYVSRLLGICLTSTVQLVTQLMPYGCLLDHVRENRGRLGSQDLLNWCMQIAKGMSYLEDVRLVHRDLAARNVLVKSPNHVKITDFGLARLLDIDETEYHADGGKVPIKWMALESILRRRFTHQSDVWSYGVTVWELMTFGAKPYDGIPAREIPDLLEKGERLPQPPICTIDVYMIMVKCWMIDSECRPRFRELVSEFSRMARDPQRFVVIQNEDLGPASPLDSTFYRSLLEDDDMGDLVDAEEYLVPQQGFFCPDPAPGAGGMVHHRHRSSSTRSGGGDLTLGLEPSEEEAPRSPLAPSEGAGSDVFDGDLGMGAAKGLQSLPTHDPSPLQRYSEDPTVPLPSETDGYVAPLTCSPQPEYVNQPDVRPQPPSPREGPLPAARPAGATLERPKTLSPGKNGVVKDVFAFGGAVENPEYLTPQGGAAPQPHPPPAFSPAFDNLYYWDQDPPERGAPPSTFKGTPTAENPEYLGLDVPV
Method: as §1, §2

[4] = test system: HER2-3T3 (murine fiboblasts transfected with human HER2); test: Inhibition of cell growth, sulforhodamine B assay, HER2-3T3; type: cell-based; settings: HER2-3T3, 2 days; for IC50: Mus musculus, 48 h, read-out: Inhibition of Cancer Cell Growth in vitro IC50, HER2-3T3
Method: as §3

[5] = test system: A431 (epidermoid carcinoma); test: Inhibition of cancer cell growth, sulforhodamine B assay, A431; type: cell-based, human; settings: A431, 2 days; for IC50: Homo sapiens, A-431, 48 h, read-out: Inhibition of Cancer Cell Growth in vitro IC50, A431
Method: as §3

[6] = test system: BT474 (breast carcinoma); test: Inhibition of cancer cell growth, sulforhodamine B assay, BT474; type: cell-based; settings: Homo sapiens, BT-474, 48 h; BT474, 2 days; read-out: Inhibition of Cancer Cell Growth in vitro IC50, BT474
Method: as §3

[7] = test system: SKBR3 (breast carcinoma); test: Inhibition of cancer cell growth, sulforhodamine B assay, SKBR3; type: cell-based, human; settings: SKBR3, 2 days; for IC50: Homo sapiens, SK-BR-3, 48 h, read-out: Inhibition of Cancer Cell Growth in vitro IC50, SKBR3
Method: as §3

[8] = test system: SW620 (colon carcinoma); test: Inhibition of cancer cell growth, sulforhodamine B assay, SW620; type: cell-based, human; settings: SW620, 2 days; for IC50: Homo sapiens, SW-620, 48 h, read-out: Inhibition of Cancer Cell Growth in vitro IC50, SW620
Method: as §3

[9] = test system: MDA-MB435 (breast carcinoma); test: Inhibition of cancer cell growth, sulforhodamine B assay, MDA-MB435; type: cell-based, human; settings: MDA-MB435, 2 days; for IC50: Homo sapiens, MDA-MB-435, 48 h, read-out: Inhibition of Cancer Cell Growth in vitro IC50, MDA-MB435
Method: as §3

[10] = test system: Murine 3T3 fibroblasts, tranfected with Her2; test: In vivo inhibition of the growth of tumors of murine 3T3 fibroblasts transfected with HER2 in nude mice; parameters: species or system Athymic nu/nu female mice
Method: Representative compounds of this invention (listed below) were evaluated in an in vivo standard pharmacological test procedure which measures their ability to inhibit tumor growth in nude mice. Murine 3T3 fibroblasts, tranfected with Her2 were grown in vitro. Athymic nu/nu female mice (Charles River, Wilmington, Mass.) were used in this in vivo standard pharmacological test procedure. A unit of 2×10^6 cells was injected SC into mice (day zero). Beginning on day 1, mice were treated IP every other day for a total of 11 days with a dose of 30 mg/kg/dose of the compound to be evaluated in 0.5% Methocel/0.4% Tween 80. Control animals received vehicle alone. […] Absolute tumor growth in mgs, (mean tumor mass on days 7, 14 and 21), is calculated for each treatment group. Statistical analysis (Student t-test) of Mean Tumor Mass compares treated verses control groups. A p-value of ≦0.05 indicates a statistically significant reduction in tumor growth of treated group compared to the vehicle control.
The compound of Example 7 was evaluated for its ability to inhibit the growth of a murine fiboblast tumor that was transfected with human HER2 in vivo using the standard pharmacological test procedure described above.

[11] = 30 mg/kg/dose IP on days 1, 3, 5, 7, 9 and 11, day 7
[12] = 30 mg/kg/dose IP on days 1, 3, 5, 7, 9 and 11, day 14

| SMILES | Inhibition of Cancer Cell Growth in vitro IC50, 3T3 [2] | IC50 [2] [mg/L] | IC50 [3] | Inhibition of Cancer Cell Growth in vitro IC50, HER2-3T3 [4] | IC50 [4] [mg/L] | Inhibition of Cancer Cell Growth in vitro IC50, A431 [5] | IC50 [5] [mg/L] | Inhibition of Cancer Cell Growth in vitro IC50, SKBR3 [7] [mg/L] | IC50 [8] [mg/L] | further results |
| --- | --- | --- | --- | --- | --- | --- | --- | --- | --- | --- |
| COc1cc2ncc(C#N)c(Nc3ccc(Sc4nc(-c5ccccc5)cs4)c(Cl)c3)c2cc1NC(=O)CC(CN(C)C)N(C)C (centres unmarked) [Example 1] | 0.7 mg/L and 0.57 mg/L | 0.76 (≈ 1.13 µM) | 1.32 µM and 0.787 µM | 0.04 mg/L and 0.03 mg/L | 0.041 (≈ 0.061 µM) | 0.37 mg/L and 0.28 mg/L | 0.242 (≈ 0.36 µM) |  |  | IC50 [1]: 4.76 µM; inhibition at 2 µg/mL [3]: 63%; IC50 [6]: 0.02 mg/L (≈ 0.0297 µM) |
| COc1cc2ncc(C#N)c(Nc3ccc(F)c(Cl)c3)c2cc1NC(=O)CC(CN1CCC(O)C1)N1CCC(O)C1 (centres unmarked) [Example 2, N-[4-(3-Chloro-4-fluoro-phenylamino)-3-cyano-7-methoxy-quinolin-6-yl]-3,4-bis-(3-hydroxy-pyrrolidin-1-yl)-butyramide] | 4.39 mg/L | 4.47 (≈ 7.67 µM) |  | 0.702 mg/L | 1.26 (≈ 2.16 µM) | 0.466 mg/L | 0.572 (≈ 0.981 µM) | 0.128 | 2.95 (≈ 5.06 µM) | inhibition at 2 µg/mL [3]: 57%; melting point: 139 to 143 °C; IC50 [7]: 0.129 mg/L (≈ 0.221 µM); Inhibition of Cancer Cell Growth in vitro IC50, SW620 [8]: 2.58 mg/L; IC50 [9]: 4.05 mg/L (≈ 6.95 µM); Inhibition of Cancer Cell Growth in vitro IC50, MDA-MB435 [9]: 3.25 mg/L |
| CCOc1cc2ncc(C#N)c(Nc3ccc(F)c(Cl)c3)c2cc1NC(=O)CC(C)N(C)C (centres unmarked) [Example 3, N-[4-(3-Chloro-4-fluoroanilino)-3-cyano-7-ethoxy-6-quinolinyl]-3-(dimethylamino)butanamide] |  | 1.3 (≈ 2.77 µM) | 10 µM |  | 1.7 (≈ 3.62 µM) | 0.27 mg/L | 0.48 (≈ 1.02 µM) | 0.17 | 1.1 (≈ 2.34 µM) | EGF-R IC50 [1]: 0.33 mg/L; IC50 [7]: 0.11 mg/L (≈ 0.234 µM) |
| CCOc1cc2ncc(C#N)c(Nc3ccc(OCc4ccccc4)c(Cl)c3)c2cc1NC(=O)CC(CCCN(C)C)N(C)C (centres unmarked) [Example 5, N-{4-[4-(Benzyloxy)-3-chloroanilino]-3-cyano-7-ethoxy-6-quinolinyl}-3,6-bis(dimethylamino)hexanamide] |  | 0.42 (≈ 0.668 µM) | 1.59 µM |  | 1.1 (≈ 1.75 µM) | 0.73 mg/L | 0.87 (≈ 1.38 µM) |  | 0.19 (≈ 0.302 µM) | EGF-R IC50 [1]: 1.0 mg/L; IC50 [9]: 0.36 mg/L (≈ 0.572 µM); Inhibition of Cancer Cell Growth in vitro IC50, MDA-MB435 [9]: 0.49 mg/L |
| CCOc1cc2ncc(C#N)c(Nc3ccc(OCc4ccccc4)c(Cl)c3)c2cc1NC(=O)CC(CN1CCCC1)N1CCCC1 (centres unmarked) [Example 7, N-{4-[4-(Benzyloxy)-3-chloroanilino]-3-cyano-7-ethoxy-6-quinolinyl}-3,4-di(1-pyrrolidinyl)butanamide] | 0.37 mg/L | 0.35 (≈ 0.536 µM) | 0.0337 µM | 0.014 mg/L | 0.017 (≈ 0.026 µM) |  |  | 0.0025 | 0.23 (≈ 0.352 µM) | inhibition of tumor growth (in words) ([10]; 30 mg/kg i.p.): significantly inhibited tumor growth; tumors in the control mice larger than tumors in treated mice (fold) ([10]; 30 mg/kg i.p., day 14): 8.5 times; % T/C Day 7 [10, 11]: 15%; Mean Tumor Weight Day 7 [10, 11]: 39 mg; % T/C Day 14 [10, 12]: 12%; Mean Tumor Weight Day 14 [10, 12]: 261 mg; Mean Tumor Weight Day 21 ([10]; 30 mg/kg/dose IP on days 1, 3, 5, 7, 9 and 11, day 21): 1849 mg; S/T = No. Survivors/No. on Day +28 post tumor cell implantation ([10]; 30 mg/kg/dose IP on days 1, 3, 5, 7, 9 and 11, day +28): 10/10; Inhibition of Cancer Cell Growth in vitro IC50, SW620 [8]: 0.28 mg/L |
| CCOc1cc2ncc(C#N)c(Nc3ccc(F)c(Cl)c3)c2cc1NC(=O)CC(CN(C)C)SCC(NC(=O)CC[C@@H](N)C(=O)O)C(=O)NCC(=O)O (stereo partly drawn) [Example 8, (2R)-2-amino-5-({2-[(carboxymethyl)amino]-1-[({3-{[4-(3-chloro-4-fluoroanilino)-3-cyano-7-ethoxy-6-quinolinyl]amino}-1-[(dimethylamino)methyl]-3-oxopropyl}sulfanyl)methyl]-2-oxoethyl}amino)-5-oxopentanoic acid] |  | > 5 | 0.854 µM |  |  | 0.21 mg/L | 0.2 (≈ 0.258 µM) |  | > 5 | IC50 [1]: 2.19 µM |
| CCOc1cc2ncc(C#N)c(Nc3ccc(OCc4ccccc4)c(Cl)c3)c2cc1NC(=O)CC(CN(C)C)N(C)C (centres unmarked) [Example 9, N-{4-[4-(Benzyloxy)-3-chloroanilino]-3-cyano-7-ethoxy-6-quinolinyl}-3,4-bis(dimethylamino)butanamide] |  |  |  |  |  |  |  |  |  | melting point: 102 to 104 °C |
